Assay results taken from patent US9629363B2, “Pesticidal compositions and processes related thereto” (Dow AgroSciences LLC, priority 2012, dated 2017).

What was measured:
[1] = test system: Beet Armyworm (BAW) (Spodoptera exigua); experiment: Bioassay on beet armyworm (BAW), 128-well diet tray assay; format: in vivo; details: for BAW Rating: percent mortality of second instar larvae, 50 μg/cm^2 on artificial diet, five to seven days, 25° C.; for pest or weed control at 50 µg/cm2: Spodoptera exigua, Table 3B, beet armyworm, 128-well diet tray assay, read-out: BAW Rating
Procedure: (§1) Certain molecules disclosed in this document were tested against BAW and CEW and CL using procedures described in the following examples. In the reporting of the results, the “BAW & CEW & CL Rating Table” was used (See Table Section).
Bioassays on BAW were conducted using a 128-well diet tray assay. one to five second instar BAW larvae were placed in each well (3 mL) of the diet tray that had been previously filled with 1 mL of artificial diet to which 50 μg/cm^2 of the test compound (dissolved in 50 μL of 90:10 acetone-water mixture) had been applied (to each of eight wells) and then allowed to dry. Trays were covered with a clear self-adhesive cover, and held at 25° C., 14:10 light-dark for five to seven days. Percent mortality was recorded for the larvae in each well; activity in the eight wells was then averaged. The results are indicated in the table entitled “Table 3: Assay Results” (See Table Section).

[2] = test system: Cabbage Looper (CL) (Trichoplusia ni); experiment: Bioassay on cabbage looper (CL), 128-well diet tray assay; format: in vivo; details: Table 3B, read-out: CL Rating
Procedure: as §1
Bioassays on CL were conducted using a 128-well diet tray assay. One to five second instar CL larvae were placed in each well (3 mL) of the diet tray that had been previously filled with 1 mL of artificial diet to which 50 μg/cm^2 of the test compound (dissolved in 50 μL of 90:10 acetone-water mixture) had been applied (to each of eight wells) and then allowed to dry. Trays were covered with a clear self-adhesive cover, and held at 25° C., 14:10 light-dark for five to seven days. Percent mortality was recorded for the larvae in each well; activity in the eight wells was then averaged. The results are indicated in the table entitled “Table 3A: Assay Results” (See Table Section).

| Compound | BAW Rating [1] | pest or weed control at 50 µg/cm2 [2] [%] | pest or weed control at 50 µg/cm2 [1] [%] |
| --- | --- | --- | --- |
| N#CCN1CCC(NC(=O)c2ccc(/C=C/C(c3cc(Cl)c(Cl)c(Cl)c3)C(F)(F)F)cc2Br)CC1 (stereo not drawn) [AC107] | B (More than 0-Less than 50) |  |  |
| O=C(NC1CCN(C2COC2)CC1)c1ccc(/C=C/C(c2cc(Cl)c(Cl)c(Cl)c2)C(F)(F)F)cc1Br (stereo not drawn) [AC108, (E)-2-Bromo-N-(1-(oxetan-3-yl)piperidin-4-yl)-4-(4,4,4-trifluoro-3-(3,4,5-trichlorophenyl)but-1-en-1-yl)benzamide] | B (More than 0-Less than 50) |  |  |
| O=C(NCCc1ccc(Cl)nc1)c1ccc(/C=C/C(c2cc(Cl)c(Cl)c(Cl)c2)C(F)(F)F)cc1Br (stereo not drawn) [AC113] | B (More than 0-Less than 50) |  |  |
| CCNC(=O)NCc1ccc(/C=C/C(c2cc(Cl)cc(Cl)c2)C(F)(F)F)cc1Cl (stereo not drawn) [CC31, (E)-1-(2-Chloro-4-(3-(3,5-dichlorophenyl)-4,4,4-trifluorobut-1-en-1-yl)benzyl)-3-ethylurea] | B (More than 0-Less than 50) |  |  |
| FC(F)(F)C(/C=C/c1ccc(-n2cncn2)cc1)c1ccccc1 (stereo not drawn) [DC3] | B (More than 0-Less than 50) |  |  |
| CN(NC(=O)c1ccc(/C=C/C(c2cc(Cl)c(Cl)c(Cl)c2)C(F)(F)F)cc1Br)C(=O)CCC(F)(F)F (stereo not drawn) [FA1] |  | 50 to 100 | 50 to 100 |
| CN(NC(=O)c1ccc(/C=C/C(c2cc(Cl)c(Cl)c(Cl)c2)C(F)(F)F)cc1Br)C(=O)CC(F)(F)F (stereo not drawn) [FA2] |  | 50 to 100 | 50 to 100 |
| CN(NC(=O)c1ccc(/C=C/C(c2cc(Cl)c(Cl)c(Cl)c2)C(F)(F)F)cc1C(F)(F)F)C(=O)C1CC1 (stereo not drawn) [FA3] |  | 50 to 100 | 50 to 100 |
| CCC(=O)N(C)NC(=O)c1ccc(/C=C/C(c2cc(Cl)c(Cl)c(Cl)c2)C(F)(F)F)cc1C (stereo not drawn) [FA4] |  | 50 to 100 | 50 to 100 |
| Cc1cc(/C=C/C(c2cc(Cl)c(Cl)c(Cl)c2)C(F)(F)F)ccc1C(=O)NN(C)C(=O)C1CC1 (stereo not drawn) [FA5] |  | 50 to 100 | 50 to 100 |
| Cc1cc(/C=C/C(c2cc(Cl)c(Cl)c(Cl)c2)C(F)(F)F)ccc1C(=O)NN(C)C(=O)CCC(F)(F)F (stereo not drawn) [FA6] |  | 50 to 100 | 50 to 100 |
| O=C(CC(F)(F)F)NCCNC(=O)c1ccc(/C=C/C(c2cc(Cl)c(Cl)c(Cl)c2)C(F)(F)F)cc1C(F)(F)F (stereo not drawn) [FA7] |  | 50 to 100 | 50 to 100 |
| CC(C)(CNC(=O)c1ccc(/C=C/C(c2cc(Cl)c(Cl)c(Cl)c2)C(F)(F)F)cc1C(F)(F)F)NC(=O)CC(F)(F)F (stereo not drawn) [FA8] |  | 50 to 100 | 50 to 100 |
| CC(C)(CNC(=O)c1ccc(/C=C/C(c2cc(Cl)c(Cl)c(Cl)c2)C(F)(F)F)cc1C(F)(F)F)NC(=O)C(F)(F)F (stereo not drawn) [FA9] |  | 0 to 50 |  |
| O=C(NCCNC(=O)C(F)(F)F)c1ccc(/C=C/C(c2cc(Cl)c(Cl)c(Cl)c2)C(F)(F)F)cc1C(F)(F)F (stereo not drawn) [FA10] |  | 50 to 100 | 50 to 100 |
| CN(NC(=O)c1ccc(/C=C/C(c2cc(Cl)c(Cl)c(Cl)c2)C(F)(F)F)cc1C(F)(F)F)C(=O)C(F)(F)C(F)(F)C(F)(F)F (stereo not drawn) [FA11] |  | 50 to 100 | 50 to 100 |
| CCCC(=O)N(C)NC(=O)c1ccc(/C=C/C(c2cc(Cl)c(Cl)c(Cl)c2)C(F)(F)F)cc1C(F)(F)F (stereo not drawn) [FA12] |  | 50 to 100 | 50 to 100 |
| CN(NC(=O)c1ccc(/C=C/C(c2cc(Cl)c(Cl)c(Cl)c2)C(F)(F)F)cc1C(F)(F)F)C(=O)CCC(F)(F)F (stereo not drawn) [FA13] |  | 50 to 100 | 50 to 100 |
| O=C(CCC(F)(F)F)NNC(=O)c1ccc(/C=C/C(c2cc(Cl)c(Cl)c(Cl)c2)C(F)(F)F)cc1C(F)(F)F (stereo not drawn) [FA14] |  | 50 to 100 | 50 to 100 |
| CC(C)(CNC(=O)C(F)(F)F)NC(=O)c1ccc(/C=C/C(c2cc(Cl)c(Cl)c(Cl)c2)C(F)(F)F)cc1C(F)(F)F (stereo not drawn) [FA15] |  | 50 to 100 | 50 to 100 |
| CC(C)(CNC(=O)CC(F)(F)F)NC(=O)c1ccc(/C=C/C(c2cc(Cl)c(Cl)c(Cl)c2)C(F)(F)F)cc1C(F)(F)F (stereo not drawn) [FA16] |  | 50 to 100 | 50 to 100 |
